target: T1, 5-LOX (Rattus norvegicus, UniProt P12527); test: Inhibition of 5-LOX product synthesis; format: cell-based; conditions: PMNL, read-out: Inhibition at 5 μmol/L (%)
T1 sequence (P12527 1-673): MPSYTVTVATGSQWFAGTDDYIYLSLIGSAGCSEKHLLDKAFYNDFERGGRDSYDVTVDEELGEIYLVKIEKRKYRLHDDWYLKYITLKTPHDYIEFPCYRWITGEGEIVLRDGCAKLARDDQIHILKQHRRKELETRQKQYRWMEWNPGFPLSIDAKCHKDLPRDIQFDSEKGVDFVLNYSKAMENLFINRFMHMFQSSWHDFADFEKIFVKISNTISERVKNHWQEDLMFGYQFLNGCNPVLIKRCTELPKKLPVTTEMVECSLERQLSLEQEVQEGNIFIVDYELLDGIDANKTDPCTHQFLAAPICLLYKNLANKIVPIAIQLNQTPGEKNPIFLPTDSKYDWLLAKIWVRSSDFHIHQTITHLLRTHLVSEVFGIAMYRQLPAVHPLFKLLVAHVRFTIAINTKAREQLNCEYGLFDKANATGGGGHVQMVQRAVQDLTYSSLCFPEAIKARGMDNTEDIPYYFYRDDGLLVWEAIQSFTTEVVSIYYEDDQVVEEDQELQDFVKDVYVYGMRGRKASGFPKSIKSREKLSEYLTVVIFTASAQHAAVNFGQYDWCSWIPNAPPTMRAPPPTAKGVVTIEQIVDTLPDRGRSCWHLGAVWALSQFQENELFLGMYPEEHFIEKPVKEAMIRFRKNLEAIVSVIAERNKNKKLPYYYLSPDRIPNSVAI

Q: For `CC(C)(C)c1cc(NC(=O)c2cc(-c3ccccc3)n(-c3ccc(S(N)(=O)=O)cc3)n2)cc(C(C)(C)C)c1O` [4a, N-(3,5-di-tert-butyl-4-hydroxyphenyl)-1-(4-aminosulfonyl-phenyl)-5-phenyl-1H-pyrazole-3-carboxamide], which inhibition at 5 µM is on record?
A: 55.7%

Q: Which inhibition at 5 µM does the source give for `Cc1ccc(-c2cc(C(=O)Nc3cc(C(C)(C)C)c(O)c(C(C)(C)C)c3)nn2-c2ccc(S(N)(=O)=O)cc2)cc1` [4b, N-(3,5-di-tert-butyl-4-hydroxyphenyl)-1-(4-aminosulfonylphenyl)-5-p-tolyl-1H-pyrazole-3-carboxamide] here?
A: 65.7%

Q: For `CC(C)Cc1ccc(-c2cc(C(=O)Nc3cc(C(C)(C)C)c(O)c(C(C)(C)C)c3)nn2-c2ccc(S(N)(=O)=O)cc2)cc1` [4d, N-(3,5-di-tert-butyl-4-hydroxyphenyl)-1-(4-aminosulfonylphenyl)-5-p-iso-butylphenyl-1H-pyrazole-3-carboxamide], which inhibition at 5 µM is on record?
A: 59%

Q: Which inhibition at 5 µM does the source give for `CC(C)(C)c1cc(NC(=O)c2cc(-c3ccc4c(c3)OCCO4)n(-c3ccc(S(N)(=O)=O)cc3)n2)cc(C(C)(C)C)c1O` [4f, N-(3,5-di-tert-butyl-4-hydroxyphenyl)-5-(2,3-dihydrobenzo [1, 4]dioxin-7-yl)-1-(4-aminosulfonylphenyl)-1H-pyrazole-3-carboxamide] here?
A: 50.7%

Q: With `CC(C)(C)c1cc(NC(=O)c2cc(-c3ccc(F)cc3)n(-c3ccc(S(N)(=O)=O)cc3)n2)cc(C(C)(C)C)c1O` [4h, N-(3,5-di-tert-butyl-4-hydroxyphenyl)-1-(4-aminosulfonylphenyl)-5-p-fluorophenyl-1H-pyrazole-3-carboxamide] as the compound, how does the inhibition at 5 µM read?
A: 39.3%

Q: How did the inhibition at 5 µM turn out when `CC(C)(C)c1cc(NC(=O)c2cc(-c3ccccc3)n(-c3ccc(S(C)(=O)=O)cc3)n2)cc(C(C)(C)C)c1O` [5a, N-(3,5-di-tert-butyl-4-hydroxyphenyl)-1-(4-methylsulfonylphenyl)-5-phenyl-1H-pyrazole-3-carboxamide] was run?
A: 41.9%

Q: Which inhibition at 5 µM does the source give for `Cc1ccc(-c2cc(C(=O)Nc3cc(C(C)(C)C)c(O)c(C(C)(C)C)c3)nn2-c2ccc(S(C)(=O)=O)cc2)cc1` [5b, N-(3,5-di-tert-butyl-4-hydroxyphenyl)-1-(4-methylsulfonylphenyl)-5-p-tolyl-1H-pyrazole-3-carboxamide] here?
A: 62.8%

Q: How did the inhibition at 5 µM turn out when `COc1ccc(-c2cc(C(=O)Nc3cc(C(C)(C)C)c(O)c(C(C)(C)C)c3)nn2-c2ccc(S(C)(=O)=O)cc2)cc1` [5c, N-(3,5-di-tert-butyl-4-hydroxyphenyl)-1-(4-methylsulfonylphenyl)-5-p-methoxyphenyl-1H-pyrazole-3-carboxamide] was run?
A: 35.6%

Q: Which inhibition at 5 µM does the source give for `CC(C)Cc1ccc(-c2cc(C(=O)Nc3cc(C(C)(C)C)c(O)c(C(C)(C)C)c3)nn2-c2ccc(S(C)(=O)=O)cc2)cc1` [5d, N-(3,5-di-tert-butyl-4-hydroxyphenyl)-1-(4-methylsulfonylphenyl)-5-p-iso-butylphenyl-1H-pyrazole-3-carboxamide] here?
A: 60.2%

Q: `CC(C)(C)c1cc(NC(=O)c2cc(-c3ccc4ccccc4c3)n(-c3ccc(S(C)(=O)=O)cc3)n2)cc(C(C)(C)C)c1O` [5g, N-(3,5-di-tert-butyl-4-hydroxyphenyl)-1-(4-methylsulfonylphenyl)-5-naphth-2-yl-1H-pyrazole-3-carboxamide] was tested. Which inhibition at 5 µM did it give?
A: 51.7%

Q: For `CC(C)(C)c1cc(NC(=O)c2cc(C3CCCCC3)n(-c3ccc(S(C)(=O)=O)cc3)n2)cc(C(C)(C)C)c1O` [5j, N-(3,5-di-tert-butyl-4-hydroxyphenyl)-1-(4-methylsulfonylphenyl)-5-cyclo-hexyl-1H-pyrazole-3-carboxamide], which inhibition at 5 µM is on record?
A: 57.3%

same assay, conditions: rat PMNLs, 5 μmol/L, mean of three determinations

Q: With `CC(C)(C)c1cc(NC(=O)c2cc(-c3ccc(C(F)(F)F)cc3)n(-c3ccc(S(N)(=O)=O)cc3)n2)cc(C(C)(C)C)c1O` [4i, N-(3,5-di-tert-butyl-4-hydroxyphenyl)-1-(4-aminosulfonylphenyl)-5-p-trifluoromethylphenyl-1H-pyrazole-3-carboxamide] as the compound, how does the “Inhibition at 5 μmol/L (%)” value read?
A: 61.9%

Source: paper PMC4724694 (Acta Pharmaceutica Sinica. B, 2016)
